Results as given in patent US7767658B2 (priority 2003, dated 2010).

Assays:
[1] = system: spleen cells secreting γ-interferon; format: in vivo, BALB/c mice; details: after restimulation with inactivated SARS virus; in response to some of the peptides used
[2] = system: spleen cells stimulated with the whole inactivated virus; format: in vivo, BALB/c mice; details: after stimulation with inactivated virus; mice given ethyl DOPC in addition to the antigen

Question: Which “production of γ-interferon (ELISPOT after restimulation)” value [1] does the source give for `CCCCCCCC/C=C\CCCCCCCC(=O)OC[C@@H](COP(=O)(OCC)OCC[N+](C)(C)C)OC(=O)CCCCCCC/C=C\CCCCCCCC` (stereo partly drawn) [ethyl DOPC, 1,2-dioleoyl-sn-glycero-3-ethylphosphocholine] here?
Answer: The value was “increased”.

Question: And the “production of IL-5 (in words)” value [2]?
Answer: The value was “not clearly modified”.

Question: What about the “production of γ-IFN (in words)” value [2] of the same compound?
Answer: Its value is “considerably increased”.
